Source: ChEMBL document CHEMBL1909046, “DrugMatrix in vitro pharmacology data”

How the values were obtained:
[1] = target: Cytochrome P450 2C19 (Homo sapiens, UniProt P33261); further: in other assays of this panel Not Active means under 50% inhibition at 10 µM
[2] = target: Voltage-gated inwardly rectifying potassium channel KCNH2 (Homo sapiens, UniProt Q12809); further: in other assays of this panel Not Active means under 50% inhibition at 10 µM
[3] = target: T1, Cytochrome P450 2C9 (Homo sapiens, UniProt P11712); settings: bti-tn-5b1-4; further: in other assays of this panel Not Active means under 50% inhibition at 10 µM
T1 sequence (P11712 whole entry): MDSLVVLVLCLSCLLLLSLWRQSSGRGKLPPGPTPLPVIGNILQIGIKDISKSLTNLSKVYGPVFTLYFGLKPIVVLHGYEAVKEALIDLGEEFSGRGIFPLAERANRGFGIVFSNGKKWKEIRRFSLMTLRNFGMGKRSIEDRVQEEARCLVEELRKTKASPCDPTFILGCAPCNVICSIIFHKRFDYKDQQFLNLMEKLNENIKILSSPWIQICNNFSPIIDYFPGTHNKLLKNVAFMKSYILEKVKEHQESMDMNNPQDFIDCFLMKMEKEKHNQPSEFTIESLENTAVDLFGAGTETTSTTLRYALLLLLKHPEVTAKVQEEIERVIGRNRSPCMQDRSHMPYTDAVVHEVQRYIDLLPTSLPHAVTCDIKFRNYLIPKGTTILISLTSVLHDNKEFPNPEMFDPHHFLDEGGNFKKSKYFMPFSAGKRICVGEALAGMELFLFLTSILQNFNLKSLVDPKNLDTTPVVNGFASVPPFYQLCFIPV

[4] = DRUGMATRIX: GABAA, Flunitrazepam, Central radioligand binding (ligand: [3H] Flunitrazepam); format: cell membranes, Rattus norvegicus, Wistar, Brain, Membrane; settings: Not Active = under 50% inhibition at 10 µM
[5] = DRUGMATRIX: Glutamate, AMPA radioligand binding (ligand: [3H] AMPA); format: cell membranes, Rattus norvegicus, Wistar, Cerebral cortex, Membrane; settings: Not Active = under 50% inhibition at 10 µM
[6] = target: T2, Cytochrome P450 1A2 (Homo sapiens, UniProt P05177); further: in other assays of this panel Not Active means under 50% inhibition at 10 µM
T2 sequence (P05177 whole entry): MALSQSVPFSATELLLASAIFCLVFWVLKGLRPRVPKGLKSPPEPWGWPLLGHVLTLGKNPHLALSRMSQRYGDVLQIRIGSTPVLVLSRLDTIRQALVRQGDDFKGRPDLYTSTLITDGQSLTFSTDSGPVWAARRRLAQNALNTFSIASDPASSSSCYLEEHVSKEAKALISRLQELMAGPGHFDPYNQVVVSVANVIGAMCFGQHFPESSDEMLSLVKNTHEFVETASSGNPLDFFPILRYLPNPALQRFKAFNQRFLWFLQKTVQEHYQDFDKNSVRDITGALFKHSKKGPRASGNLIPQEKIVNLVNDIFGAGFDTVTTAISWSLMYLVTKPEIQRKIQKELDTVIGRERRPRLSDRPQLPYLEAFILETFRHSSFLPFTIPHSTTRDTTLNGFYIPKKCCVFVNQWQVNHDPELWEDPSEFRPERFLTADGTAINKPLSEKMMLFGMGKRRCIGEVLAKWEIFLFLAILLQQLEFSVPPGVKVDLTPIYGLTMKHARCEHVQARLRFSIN

[7] = target: T1, Cytochrome P450 2C9
[8] = target: Cytochrome P450 2D6 (Homo sapiens, UniProt P10635); further: in other assays of this panel Not Active means under 50% inhibition at 10 µM
Cytochrome P450 2D6, sequence (P10635 whole entry): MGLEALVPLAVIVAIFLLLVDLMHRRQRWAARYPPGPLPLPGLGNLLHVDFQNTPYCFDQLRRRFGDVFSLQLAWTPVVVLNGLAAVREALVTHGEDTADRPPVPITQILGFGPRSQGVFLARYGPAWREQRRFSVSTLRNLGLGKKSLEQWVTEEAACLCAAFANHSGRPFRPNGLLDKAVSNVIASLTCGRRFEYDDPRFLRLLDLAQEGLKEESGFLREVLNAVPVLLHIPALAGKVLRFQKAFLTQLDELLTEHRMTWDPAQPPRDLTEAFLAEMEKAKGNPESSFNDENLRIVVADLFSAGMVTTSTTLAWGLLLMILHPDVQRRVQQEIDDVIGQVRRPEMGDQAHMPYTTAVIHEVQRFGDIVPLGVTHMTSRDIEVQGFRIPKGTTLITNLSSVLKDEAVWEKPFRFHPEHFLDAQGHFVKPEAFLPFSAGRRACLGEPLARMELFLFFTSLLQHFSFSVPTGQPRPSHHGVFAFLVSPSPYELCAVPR

[9] = target: T3, Androgen receptor (Rattus norvegicus, UniProt P15207); further: in other assays of this panel Not Active means under 50% inhibition at 10 µM
T3 sequence (P15207 whole entry): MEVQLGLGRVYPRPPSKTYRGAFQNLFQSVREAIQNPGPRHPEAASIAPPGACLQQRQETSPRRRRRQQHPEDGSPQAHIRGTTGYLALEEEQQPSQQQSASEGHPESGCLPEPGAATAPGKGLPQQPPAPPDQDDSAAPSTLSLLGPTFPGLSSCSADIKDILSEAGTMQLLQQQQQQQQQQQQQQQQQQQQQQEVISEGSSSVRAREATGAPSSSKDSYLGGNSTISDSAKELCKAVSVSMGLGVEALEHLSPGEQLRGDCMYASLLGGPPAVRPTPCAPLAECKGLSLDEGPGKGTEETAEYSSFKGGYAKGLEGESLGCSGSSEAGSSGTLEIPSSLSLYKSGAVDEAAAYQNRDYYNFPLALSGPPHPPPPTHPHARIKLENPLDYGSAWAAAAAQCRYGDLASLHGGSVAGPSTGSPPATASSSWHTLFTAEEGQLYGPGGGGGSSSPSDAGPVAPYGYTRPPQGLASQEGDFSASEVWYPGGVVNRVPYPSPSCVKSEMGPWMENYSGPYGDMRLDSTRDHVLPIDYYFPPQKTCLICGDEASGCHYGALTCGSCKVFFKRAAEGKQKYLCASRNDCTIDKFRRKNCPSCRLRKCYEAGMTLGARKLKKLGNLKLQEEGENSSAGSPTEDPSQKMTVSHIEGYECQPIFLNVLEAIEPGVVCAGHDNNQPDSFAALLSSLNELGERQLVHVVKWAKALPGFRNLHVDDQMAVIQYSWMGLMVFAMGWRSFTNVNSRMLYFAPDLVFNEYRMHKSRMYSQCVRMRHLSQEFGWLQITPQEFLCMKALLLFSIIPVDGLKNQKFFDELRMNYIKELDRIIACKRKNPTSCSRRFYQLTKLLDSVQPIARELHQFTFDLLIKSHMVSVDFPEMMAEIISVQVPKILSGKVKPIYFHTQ

[10] = target: T3, Androgen receptor; remark: listed apart in the source

Voltage-gated inwardly rectifying potassium channel KCNH2, sequence (Q12809 whole entry): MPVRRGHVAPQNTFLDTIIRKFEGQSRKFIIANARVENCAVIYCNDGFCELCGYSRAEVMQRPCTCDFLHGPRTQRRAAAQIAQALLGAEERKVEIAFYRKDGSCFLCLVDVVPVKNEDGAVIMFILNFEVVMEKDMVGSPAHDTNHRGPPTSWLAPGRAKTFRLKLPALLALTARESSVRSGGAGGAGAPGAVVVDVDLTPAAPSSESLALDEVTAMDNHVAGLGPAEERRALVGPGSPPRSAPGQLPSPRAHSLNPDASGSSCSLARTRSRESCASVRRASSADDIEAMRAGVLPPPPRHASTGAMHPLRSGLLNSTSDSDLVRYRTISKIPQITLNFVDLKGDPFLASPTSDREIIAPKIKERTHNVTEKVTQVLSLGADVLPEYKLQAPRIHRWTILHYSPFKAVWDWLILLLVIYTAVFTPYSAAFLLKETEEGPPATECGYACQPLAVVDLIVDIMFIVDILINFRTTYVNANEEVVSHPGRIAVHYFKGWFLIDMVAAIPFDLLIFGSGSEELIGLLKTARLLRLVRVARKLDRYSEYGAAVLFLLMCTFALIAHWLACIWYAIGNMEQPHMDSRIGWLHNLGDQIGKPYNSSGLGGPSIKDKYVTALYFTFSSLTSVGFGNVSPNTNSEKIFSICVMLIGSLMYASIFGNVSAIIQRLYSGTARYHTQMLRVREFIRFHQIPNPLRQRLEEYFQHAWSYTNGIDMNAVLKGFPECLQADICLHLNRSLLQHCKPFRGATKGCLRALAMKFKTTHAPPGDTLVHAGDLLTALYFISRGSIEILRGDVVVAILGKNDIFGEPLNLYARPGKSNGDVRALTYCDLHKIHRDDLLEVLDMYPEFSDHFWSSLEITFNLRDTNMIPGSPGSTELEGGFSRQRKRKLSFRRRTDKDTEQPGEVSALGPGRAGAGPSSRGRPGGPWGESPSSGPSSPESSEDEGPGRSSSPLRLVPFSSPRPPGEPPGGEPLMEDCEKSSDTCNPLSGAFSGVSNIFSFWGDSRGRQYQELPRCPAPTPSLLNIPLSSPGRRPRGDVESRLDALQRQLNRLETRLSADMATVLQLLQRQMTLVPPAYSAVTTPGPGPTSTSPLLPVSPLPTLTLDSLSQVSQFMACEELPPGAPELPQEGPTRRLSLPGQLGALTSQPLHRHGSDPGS
Cytochrome P450 2C19, sequence (P33261 whole entry): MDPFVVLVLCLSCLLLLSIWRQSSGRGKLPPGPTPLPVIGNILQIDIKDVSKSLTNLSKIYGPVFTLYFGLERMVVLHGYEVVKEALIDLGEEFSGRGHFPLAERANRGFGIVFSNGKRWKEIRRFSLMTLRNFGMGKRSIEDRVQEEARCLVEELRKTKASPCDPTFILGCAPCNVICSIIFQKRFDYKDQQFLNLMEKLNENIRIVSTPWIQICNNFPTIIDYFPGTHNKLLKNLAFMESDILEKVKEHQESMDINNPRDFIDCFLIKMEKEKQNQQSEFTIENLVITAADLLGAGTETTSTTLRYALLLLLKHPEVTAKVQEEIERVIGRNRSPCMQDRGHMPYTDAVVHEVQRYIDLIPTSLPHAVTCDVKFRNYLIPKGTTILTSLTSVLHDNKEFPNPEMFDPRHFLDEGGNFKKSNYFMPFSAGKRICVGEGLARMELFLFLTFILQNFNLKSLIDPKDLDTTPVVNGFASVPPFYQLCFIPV

`CN[C@H]1CC[C@@H](c2ccc(Cl)c(Cl)c2)c2ccccc21` [SERTRALINE] showed an IC50 [1] of 1 µM, an IC50 [2] of 8.32 µM and a Ki [2] of 6.81 µM. The IC50 [3] was “Not Active” and the Ki [3] was “Not Active”.
With `O=C(Nc1ccc(Br)cc1)c1cc(Br)cc(Br)c1O` [TRIBROMSALAN] the IC50 [4] was “Not Active”, the Ki [4] was “Not Active” and the IC50 [5] was “Not Active”. For the same molecule, the Ki [5] was “Not Active”, the IC50 [6] was 2 µM and the IC50 [7] was 2 µM.
Molecule `Clc1ccc(COC(Cn2ccnc2)c2ccc(Cl)cc2Cl)cc1` (stereo unspecified) [ECONAZOLE] has an IC50 [6] of 0.3 µM, an IC50 [1] of 0.04 µM and an IC50 [8] of 0.4 µM.
In the case of `CCN(CC)CCOc1ccc(/C(=C(/Cl)c2ccccc2)c2ccccc2)cc1` [ENCLOMIPHENE], the IC50 [8] is reported as 10 µM, the IC50 [9] is reported as “Not Active” and the IC50 [3] is reported as “Not Active”. The Ki [3] was “Not Active”.
In the case of `C[C@H]1C[C@@H]2[C@H]([C@@H](O)C[C@@]3(C)[C@H]2CC[C@]3(O)C(=O)CO)[C@@]2(C)C=CC(=O)C=C12` [METHYLPREDNISOLONE], the IC50 [4] is reported as “Not Active”, the Ki [4] is reported as “Not Active” and the IC50 [5] is reported as “Not Active”. For the same molecule, the Ki [5] was “Not Active”, the IC50 [10] was 26.7 µM and the Ki [10] was 17.8 µM. For the same molecule, the IC50 [3] was “Not Active” and the Ki [3] was “Not Active”.
For `CO[C@@H]1[C@@H](OC)[C@H](C)[C@@](O)(CC(=O)O)O[C@H]1[C@H](C)[C@H]1O[C@@]2(CC[C@@](C)([C@H]3CC[C@@](C)([C@@H]4O[C@@H]([C@H]5O[C@](C)(O)[C@H](C)C[C@@H]5C)C[C@@H]4O[C@@H]4C[C@H](OC)[C@@H](OC)[C@H](C)O4)O3)O2)C[C@H](O)[C@H]1C` [MADURAMICIN ACID], the IC50 [4] was “Not Active”, the Ki [4] was “Not Active” and the IC50 [5] was “Not Active”. The Ki [5] was “Not Active”, the IC50 [8] was 1 µM and the IC50 [3] was “Not Active”. For the same molecule, the Ki [3] was “Not Active”.
With `NC(=O)N1C(=O)/C(=C(\O)c2cccs2)c2cc(Cl)ccc21` [TENIDAP] the IC50 [4] was “Not Active”, the Ki [4] was “Not Active” and the IC50 [5] was “Not Active”. For the same molecule, the Ki [5] was “Not Active”, the IC50 [6] was 1 µM and the IC50 [7] was 0.7 µM. For the same molecule, the IC50 [9] was “Not Active”.
In the case of `N#Cc1ccc(C(c2ccc(C#N)cc2)n2cncn2)cc1` [LETROZOLE], the IC50 [4] is reported as “Not Active”, the Ki [4] is reported as “Not Active” and the IC50 [5] is reported as “Not Active”. The Ki [5] was “Not Active”, the IC50 [9] was “Not Active” and the IC50 [3] was “Not Active”. For the same molecule, the Ki [3] was “Not Active”.
For `CN(C/C=C/C#CC(C)(C)C)Cc1cccc2ccccc12` [TERBINAFINE], the IC50 [4] was “Not Active”, the Ki [4] was “Not Active” and the IC50 [5] was “Not Active”. The Ki [5] was “Not Active”, the IC50 [8] was 0.2 µM and the IC50 [3] was “Not Active”. The Ki [3] was “Not Active”.
In the case of `O=C1Nc2ccc(Cl)cc2C(c2ccccc2Cl)=NC1O` (stereo unspecified) [LORAZEPAM], the IC50 ([4]; read-out: IC50) is reported as 0.00635 µM, the Ki ([4]; read-out: Ki) is reported as 0.00518 µM and the IC50 [5] is reported as “Not Active”. The Ki [5] was “Not Active”, the IC50 [9] was “Not Active” and the IC50 [3] was “Not Active”. The Ki [3] was “Not Active”.
